Here are results for 1 molecule from patent US20080194701A1, “Bifunctional Enzyme with Y-Glutamylcysteine Synthetase and Glutathione Synthetase Activity and Uses Thereof” (priority 2004, published 2008).

For orientation: Km means the concentration of substrate that gives half-maximal velocity.

One assay addresses T1, S. agalactiae γ-GCS-GS (Streptococcus agalactiae serotype V, UniProt Q8DXM9).
T1 sequence (Q8DXM9 1-750): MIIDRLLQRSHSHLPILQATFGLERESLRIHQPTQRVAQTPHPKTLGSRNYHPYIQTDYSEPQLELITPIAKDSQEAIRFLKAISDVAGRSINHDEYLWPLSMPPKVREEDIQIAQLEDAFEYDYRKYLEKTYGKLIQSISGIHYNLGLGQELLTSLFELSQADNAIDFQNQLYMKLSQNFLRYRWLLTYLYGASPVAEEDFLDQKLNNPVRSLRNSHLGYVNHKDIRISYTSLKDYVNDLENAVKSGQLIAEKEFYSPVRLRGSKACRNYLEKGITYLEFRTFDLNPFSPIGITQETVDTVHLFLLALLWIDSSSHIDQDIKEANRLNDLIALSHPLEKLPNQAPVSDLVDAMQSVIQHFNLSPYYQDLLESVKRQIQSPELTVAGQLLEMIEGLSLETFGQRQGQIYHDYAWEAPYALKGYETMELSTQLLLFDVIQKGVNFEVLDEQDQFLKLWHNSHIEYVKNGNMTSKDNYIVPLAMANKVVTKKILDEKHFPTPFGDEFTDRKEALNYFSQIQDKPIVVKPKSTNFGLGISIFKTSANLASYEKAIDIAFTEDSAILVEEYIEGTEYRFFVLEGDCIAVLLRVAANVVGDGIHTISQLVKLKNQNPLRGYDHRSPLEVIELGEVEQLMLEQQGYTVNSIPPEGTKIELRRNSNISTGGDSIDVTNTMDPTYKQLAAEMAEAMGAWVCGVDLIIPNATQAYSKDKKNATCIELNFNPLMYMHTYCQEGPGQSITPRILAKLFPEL
The assay is described as follows: γ-GCS activity assay based on ADP formation, S. agalactiae γ-GCS-GS. It counts as biochemical. Set-up: corresponded to full-length S. agalactiae γ-GCS-GS with an N-terminal His8-tag; made in house; host or cells: E. coli SG13009 with pQE30-gshAB plus pREP4 or pRARE. The note with it: γ-GCS activity.

A further assay deals with E. coli γ-GCS (Escherichia coli, UniProt P0A6W9). The note with it: cited from earlier work.
Chain of E. coli γ-GCS (P0A6W9 whole entry): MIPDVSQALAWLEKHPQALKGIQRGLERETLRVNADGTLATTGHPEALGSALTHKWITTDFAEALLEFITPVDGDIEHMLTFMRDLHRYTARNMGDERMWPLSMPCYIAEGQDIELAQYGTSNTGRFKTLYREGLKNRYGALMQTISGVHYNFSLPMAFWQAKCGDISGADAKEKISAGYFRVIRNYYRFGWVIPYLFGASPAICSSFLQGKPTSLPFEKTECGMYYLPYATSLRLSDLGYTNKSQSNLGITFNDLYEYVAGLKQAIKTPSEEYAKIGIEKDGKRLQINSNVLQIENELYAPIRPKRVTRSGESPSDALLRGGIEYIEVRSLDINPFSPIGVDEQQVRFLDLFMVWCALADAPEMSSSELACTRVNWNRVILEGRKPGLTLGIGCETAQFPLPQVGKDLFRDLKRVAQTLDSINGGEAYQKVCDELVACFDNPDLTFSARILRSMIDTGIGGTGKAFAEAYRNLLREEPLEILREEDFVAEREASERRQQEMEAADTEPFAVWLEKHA
In a further assay the target is T2, Human GS (Homo sapiens, UniProt P48637).
T2 sequence (P48637 1-474): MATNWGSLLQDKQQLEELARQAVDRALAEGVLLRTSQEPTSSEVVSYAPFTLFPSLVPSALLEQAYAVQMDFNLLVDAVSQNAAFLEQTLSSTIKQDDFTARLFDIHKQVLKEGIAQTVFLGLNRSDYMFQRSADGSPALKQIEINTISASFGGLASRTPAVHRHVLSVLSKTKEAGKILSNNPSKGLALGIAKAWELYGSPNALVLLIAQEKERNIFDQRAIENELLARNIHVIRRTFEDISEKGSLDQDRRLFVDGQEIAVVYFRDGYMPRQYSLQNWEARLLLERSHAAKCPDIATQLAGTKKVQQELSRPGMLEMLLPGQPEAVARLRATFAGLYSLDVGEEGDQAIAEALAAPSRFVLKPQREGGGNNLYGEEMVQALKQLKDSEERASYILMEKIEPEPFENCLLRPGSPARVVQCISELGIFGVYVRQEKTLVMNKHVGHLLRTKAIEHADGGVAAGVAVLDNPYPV
The conditions noted are these: cited from earlier work.

For assay [1], the target named is T3, E. faecalis γ-GCS-GS (Enterococcus faecalis, UniProt Q82ZG8). In words: γ-GCS activity of E. faecalis γ-GCS-GS. The conditions noted are these: substrate Km, γ-GCS activity.
T3 sequence (Q82ZG8 whole entry): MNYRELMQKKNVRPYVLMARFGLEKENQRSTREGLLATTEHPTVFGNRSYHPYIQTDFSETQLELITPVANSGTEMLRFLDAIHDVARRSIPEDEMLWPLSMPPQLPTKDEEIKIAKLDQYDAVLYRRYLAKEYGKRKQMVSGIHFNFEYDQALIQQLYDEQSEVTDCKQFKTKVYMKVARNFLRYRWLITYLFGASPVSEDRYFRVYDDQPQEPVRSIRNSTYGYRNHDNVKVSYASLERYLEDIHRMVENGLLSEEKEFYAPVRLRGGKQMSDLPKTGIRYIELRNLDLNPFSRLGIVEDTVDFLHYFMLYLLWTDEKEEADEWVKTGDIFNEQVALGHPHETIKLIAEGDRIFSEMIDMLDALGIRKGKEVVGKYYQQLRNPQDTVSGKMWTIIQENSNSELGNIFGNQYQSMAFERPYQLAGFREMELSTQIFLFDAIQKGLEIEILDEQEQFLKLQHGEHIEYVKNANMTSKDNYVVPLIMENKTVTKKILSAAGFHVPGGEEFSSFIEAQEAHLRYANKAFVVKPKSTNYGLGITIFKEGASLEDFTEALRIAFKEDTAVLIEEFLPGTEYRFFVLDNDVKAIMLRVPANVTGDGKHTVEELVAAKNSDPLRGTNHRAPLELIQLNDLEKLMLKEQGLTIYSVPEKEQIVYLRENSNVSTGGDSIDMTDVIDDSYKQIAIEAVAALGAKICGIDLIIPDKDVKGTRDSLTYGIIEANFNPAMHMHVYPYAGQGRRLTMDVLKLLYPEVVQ
The target of the next assay is T4, Human γ-GCS (Homo sapiens, UniProt P48506).
T4 sequence (P48506 1-637): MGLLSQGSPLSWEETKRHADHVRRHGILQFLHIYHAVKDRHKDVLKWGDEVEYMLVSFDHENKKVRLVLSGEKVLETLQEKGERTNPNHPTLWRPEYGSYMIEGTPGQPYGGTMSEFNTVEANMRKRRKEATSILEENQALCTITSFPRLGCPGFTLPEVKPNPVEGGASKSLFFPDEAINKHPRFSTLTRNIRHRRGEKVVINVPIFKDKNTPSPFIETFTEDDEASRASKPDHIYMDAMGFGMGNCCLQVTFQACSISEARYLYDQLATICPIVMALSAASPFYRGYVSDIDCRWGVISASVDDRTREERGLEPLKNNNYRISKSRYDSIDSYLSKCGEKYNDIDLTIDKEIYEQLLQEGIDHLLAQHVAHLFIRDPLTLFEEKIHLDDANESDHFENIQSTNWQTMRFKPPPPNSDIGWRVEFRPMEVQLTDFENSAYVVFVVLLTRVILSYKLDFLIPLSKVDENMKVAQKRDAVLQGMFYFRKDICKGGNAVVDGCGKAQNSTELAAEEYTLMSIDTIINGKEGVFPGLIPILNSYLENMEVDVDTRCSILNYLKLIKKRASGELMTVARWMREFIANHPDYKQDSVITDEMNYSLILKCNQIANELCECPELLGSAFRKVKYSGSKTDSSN
T4 sequence (P48507 1-274 partner): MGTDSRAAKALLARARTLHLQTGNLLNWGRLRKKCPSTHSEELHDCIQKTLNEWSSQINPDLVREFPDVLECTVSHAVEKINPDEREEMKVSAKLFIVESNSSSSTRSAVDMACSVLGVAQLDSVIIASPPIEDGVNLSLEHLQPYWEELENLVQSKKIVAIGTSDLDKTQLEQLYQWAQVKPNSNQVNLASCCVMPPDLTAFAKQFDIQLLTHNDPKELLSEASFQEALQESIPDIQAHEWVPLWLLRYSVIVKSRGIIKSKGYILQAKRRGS
The note with it: cited from earlier work.

A further assay concerns the target E. coli GS (Escherichia coli, UniProt P04425). The conditions noted are these: cited from earlier work.
In assay [2] the target is T3, E. faecalis γ-GCS-GS. The assay is described as follows: GS activity of E. faecalis γ-GCS-GS. The note with it: substrate Km, GS activity.

Chain of E. coli GS (P04425 whole entry): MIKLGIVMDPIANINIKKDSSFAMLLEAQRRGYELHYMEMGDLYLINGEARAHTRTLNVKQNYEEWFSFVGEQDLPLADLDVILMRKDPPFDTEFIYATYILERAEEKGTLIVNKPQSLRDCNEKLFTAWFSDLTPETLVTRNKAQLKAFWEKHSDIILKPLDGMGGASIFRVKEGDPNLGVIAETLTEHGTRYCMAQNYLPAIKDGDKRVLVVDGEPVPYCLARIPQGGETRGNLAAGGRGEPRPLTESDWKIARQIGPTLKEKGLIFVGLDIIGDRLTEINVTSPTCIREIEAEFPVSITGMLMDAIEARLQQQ

Regarding `Nc1ncnc2c1ncn2[C@@H]1O[C@H](COP(=O)(O)OP(=O)(O)OP(=O)(O)O)[C@@H](O)[C@H]1O` [ATP], the Km was 66 ± 9 µM on S. agalactiae γ-GCS-GS (substrate Km); 62 µM at E. coli γ-GCS (substrate Km); 220 ± 30 µM at Human GS (substrate Km); 2300 ± 100 µM at E. faecalis γ-GCS-GS [1]; 400 ± 40 µM at Human γ-GCS (substrate Km); 1800 µM at E. coli GS (substrate Km). The Km at E. faecalis γ-GCS-GS [2] amounted to 179 ± 5 µM. Further, the Vmax on S. agalactiae γ-GCS-GS (unit = 1 μmol product per hour) is 1332 ± 120 units/mg; on E. coli γ-GCS (unit = 1 μmol product per hour), ~3000 units/mg; on Human GS it was 361 ± 84 units/mg; at Human γ-GCS (unit = 1 μmol product per hour), ~1500 units/mg; on E. coli GS, 650 units/mg.
